Experimental data published in US20230364032A1, “USE OF 2-HOBA TO TREAT ATHEROSCLEROSIS” (Vanderbilt University, priority 2020, published 2023).
Entries after “also recorded” stand apart in the source; their conditions may differ.

Columns and labels:
MDA = experiment: MDA-HOBA (propenal-HOBA) adducts in urine and tissues after oral gavage (LC-MS/MS); type: in vivo, mouse
Procedure: Urine samples were collected for 16 h after oral gavage of male Ldlr^−/− mice on a WD with either 2-HOBA or 4-HOBA. After 16 h, the Ldlr^−/− mice were sacrificed and the HOBA-propenal adducts in urine (14A), liver (14B), kidney (14C) and spleen (14D) were measured using LC-MS/MS as described in methods (14A-D) (Mann-Whitney test, ** indicates p<0.01 and *** indicates p<0.001).
Ldlr^−/− and WT on C57BL/6 background mice were obtained from the Jackson Laboratory. Animal protocols were performed according to the regulations of Vanderbilt University's Institutional Animal Care and Usage Committee. Mice were maintained on chow or a Western-type diet containing 21% milk fat and 0.15% cholesterol (Teklad). Eight week old, female Ldlr^−/− mice on a chow diet were pretreated with vehicle alone (Water) or containing either 1 g/L of 4-HOBA or 1 g/L of 2-HOBA. 4-HOBA (as hydrochloride salt) was synthesized as previously described^21. 2-HOBA (as the acetate salt, CAS 1206675-01-5) was manufactured by TSI Co., Ltd. (Missoula, MT) and obtained from Metabolic Technologies, Inc., Ames, IA^24. A commercial production lot was used (Lot 16120312), and the purity of the commercial lot was verified to be >99% via HPLC and NMR spectroscopy^24. After two weeks, the mice continued to receive these treatments but were switched to a western diet for 16 weeks to induce hypercholesterolemia and atherosclerosis. Similarly, 12 week-old male Ldlr^−/− mice were pretreated with vehicle alone (water) or containing 1 g/L of 2-HOBA for two weeks and were then switched to a western diet for 16 weeks to induce hypercholesterolemia and atherosclerosis, while continuing the treatment with 2-HOBA or water alone^58, 59, 60 Based on the average weight and daily consumption of water per mouse the estimated daily dosage with 1 g/L of 2-HOBA is 200 mg/Kg. […] Eight week old, male Ldlr^−/− mice were fed a western diet for 16 weeks and were continuously treated with water containing either 2-HOBA or 4-HOBA. Urine samples were collected using metabolic cages (2 mice in one cage) during 18 h after oral gavage with either 2-HOBA or 4-HOBA (5 mg each mouse).
The scavenger-MDA adducts were extracted, (1) from homogenate of tissue (equivalent of 30 mg) or (2) from cells (1 ml), three times with 500 μl of ethyl acetate. The extract was dried down, resuspended in 100 μl of ACN-water (1:1, v/v with 0.1% formic acid), vortexed, and filtered through a 0.22 μm spin X column. The reactions were analyzed by LC-EST/MS/MS using the column a Phenomenex Kinetex column at a flow rate of 0.1 ml/min. The gradient consisted of Solvent A, water with 0.2% formic acid and solvent B, acetonitrile with 0.2% formic acid. The gradient was as follows: 0-2 min 99.9% A, 2-9 min 99.9-0.1% A, 9-12 min 99.9% B. The mass spectrometer was operated in the positive ion mode, and the spray voltage was maintained at 5,000 V. Nitrogen was used for the sheath gas and auxiliary gas at pressures of 30 and 5 arbitrary units, respectively. The optimized skimmer offset was set at 10, capillary temperature was 300° C., and the tube lens voltage was specific for each compound. SRM of specific transition ions for the precursor ions at m/z 178→107 (propenal-HOBA adduct).

peritoneal macrophages = experiment: Macrophage cytokine mRNA by real time PCR (oxidized LDL or H2O2); type: cell-based, mouse
Procedure: […] Apoptotic cells were then detected by Annexin V staining and flow cytometry. […] (6A to 6H) Data are presented as mean±SEM from three independent experiments, ***p<0.001, One-way ANOVA with Bonferroni's post hoc test.
Total RNA was isolated and purified, cDNA was synthesized, and the mRNA levels of IL-1β, IL-6 and TNF-α were measured by real-time PCR. The data are from three independent experiments. *p<0.05, **p<0.01, ***p<0.001, One-way ANOVA (Bonferroni's post hoc test).
Total RNA was extracted and purified using Aurum Total RNA kit (Bio-Rad) according to the manufacturer's protocol. Complementary DNA was synthesized with iScript reverse transcriptase (Bio-Rad). Relative quantitation of the target mRNA was performed using specific primers, SYBR probe (Bio-Rad), and iTaqDNA polymerase (Bio-Rad) on IQ5 Thermocylcer (Bio-Rad) and normalized with 18S, as described earlier. 18S, IL-1[…] and TNF-[…] primers used were as described earlier^67.

cyclooxygenase (COX) = experiment: Urinary prostaglandin metabolites (LC/MS); type: in vivo, mouse
Procedure: The urine samples were collected in metabolic cages with 2 mice per cage after 12 weeks of treatment with 2-HOBA or water. The contents of PGE-M (20A), tetranor PGD-M (20B), 2,3-dinor-6-keto-PGF1 (20C) and 11-dehydro TxB2 (20D) were analyzed by LC/MS/MS. (20A-20D) Mean±SEM shown for each, N.S., Mann-Whitney Test.
Concentrations of PGE-M, tetranor PGD-M, 11-dehydro-TxB^2 (TxB-M) and PGI-M in urine were measured in the Eicosanoid Core Laboratory at Vanderbilt University Medical Center. Urine (1 mL) was acidified to pH 3 with HCl. [^2H4]-2,3-dinor-6-keto-PGF1a (internal standard for PGI-M quantification) and [^2H4]-11-dehydro-TxB2 were added, and the sample was treated with methyloxime HCl to convert analytes to the O-methyloxime derivative. The derivatized analytes were extracted using a C-18 Sep-Pak (Waters Corp. Milford, MA USA) and eluted with ethyl acetate as previously described^68. A [^2H6]—O-methyloxime PGE-M deuterated internal standard was then added for PGE-M and PGD-M quantification. The sample was dried under a stream of dry nitrogen at 37° C. and then reconstituted in 75 μL mobile phase A for LC/MS analysis.
LC was performed on a 2.0×50 mm, 1.7 μm particle Acquity BEH C18 column (Waters Corporation, Milford, MA, USA) using a Waters Acquity UPLC. […]
Urinary creatinine levels are measured using a test kit from Enzo Life Sciences. […]

[1] = 16 h post oral gavage, Ldlr−/− mice

In the case of `NCc1ccccc1O` [2-HOBA, 2-hydroxybenzylamine], the “propenal-HOBA adducts in kidney, 2-HOBA versus 4-HOBA” value (MDA; [1]) is reported as 5 fold, the “propenal-HOBA adducts in liver, 2-HOBA versus 4-HOBA” value (MDA; [1]) is reported as 3 fold and the “propenal-HOBA adducts in spleen, 2-HOBA versus 4-HOBA” value (MDA; [1]) is reported as 11 fold. The “formation of MDA-HOBA adducts in vivo” value (MDA; Ldlr−/− mice on WD, oral gavage) was “abundantly formed; also recorded: more readily formed”, the “MDA-2-HOBA versus MDA-4-HOBA (propenal-HOBA) adducts in urine” value (MDA; urine collected during 16 h after oral gavage (5 mg), Ldlr−/− mice on western diet 16 weeks) was 19 fold and the “levels of IL-1β, IL-6, and TNF-α mRNA” value (peritoneal macrophages; 500 μM 2-HOBA in the presence of H2O2 (100 μM, 24 hours)) was “significantly reduced”. For the same compound, the “macrophage inflammatory response: mRNA levels of IL-1β, IL-6, and TNF-α” value (peritoneal macrophages; oxidized LDL, 24 h, 500 μM) was “significantly reduced”, the “levels of major urinary prostaglandin metabolites (2,3-dinor-6-keto-PGF1, 11-dehydro TxB2, PGE-M, PGD-M)” value (cyclooxygenase (COX); Ldlr−/− mice, compared to the vehicle control) was “no significant differences; also recorded: did not impact” and the “inhibition of COX in vivo” value (cyclooxygenase (COX); mice) was “not significantly inhibiting COX”.
